Our source for the MIC values is ChEMBL document CHEMBL1139242, “Peptide deformylase inhibitors of Mycobacterium tuberculosis: synthesis, structural investigations, and biological results” (Bioorg Med Chem Lett, 2008).

Converted amounts (≈) assume the structure as drawn.

Holding throughout (assay type): functional
Holding throughout (details): 336 h

The test system of experiment [1] is Mycobacterium tuberculosis. Description: Antitubercular activity against rifampicin-resistant Mycobacterium tuberculosis after 14 days by turbidimetric assay.
The subject of experiment [2] is Mycobacterium tuberculosis. Put plainly: Antitubercular activity against pyrazinamide-resistant Mycobacterium tuberculosis after 14 days by turbidimetric assay.
The subject of experiment [3] is Mycobacterium tuberculosis. Put plainly: Antitubercular activity against Beijing W multidrug resistant Mycobacterium tuberculosis after 14 days by turbidimetric assay.
Experiment [4] deals with Mycobacterium tuberculosis. Description: Antitubercular activity against isoniazid-resistant Mycobacterium tuberculosis after 14 days by turbidimetric assay.
Experiment [5] has as its system Mycobacterium tuberculosis. Description: Antitubercular activity against streptomycin-resistant Mycobacterium tuberculosis after 14 days by turbidimetric assay.

One may read the MIC as the least concentration at which growth counts as inhibited. A high value points to a less susceptible organism. Turning to `CCCC[C@H](CN(O)C=O)C(=O)N1CCC[C@H]1c1nc2ccccc2[nH]1`, the MIC in experiment [1] stood at 0.125 µg/mL (≈ 0.349 µM); in experiment [2], 0.25 µg/mL (≈ 0.697 µM); in experiment [3], 0.03 µg/mL (≈ 0.0837 µM); in experiment [4], 0.03 µg/mL (≈ 0.0837 µM); in experiment [5], 0.2 µg/mL (≈ 0.558 µM).
For `CCCC[C@H](CN(O)C=O)C(=O)N1CCC[C@H]1C(=O)Nc1ccccn1`, the MIC is 0.25 µg/mL (≈ 0.69 µM) in experiment [1]; 0.5 µg/mL (≈ 1.38 µM) in experiment [2]; 0.125 µg/mL (≈ 0.345 µM) in experiment [3]; 0.1 µg/mL (≈ 0.276 µM) in experiment [4]; 0.5 µg/mL (≈ 1.38 µM) in experiment [5].
In the case of `CCCC[C@H](CN(O)C=O)C(=O)N1CCC[C@H]1c1nc2ccccc2o1`, the minimum inhibitory concentration (MIC) in experiment [1] worked out at 0.6 µg/mL (≈ 1.67 µM); in experiment [2], 0.25 µg/mL (≈ 0.696 µM); in experiment [3], 0.06 µg/mL (≈ 0.167 µM); in experiment [4], 0.06 µg/mL (≈ 0.167 µM); in experiment [5] it was 0.5 µg/mL (≈ 1.39 µM).
